Results published in patent EP0531958A1, “6-Aminoquinolones, their synthesis and their use as antibacterial agents” (MEDIOLANUM FARMACEUTICI S.P.A., priority 1991, dated 1993).
In brackets after ≈: the same amount, converted by molar mass. Read-outs that look alike come from different tables or passages of the source.

What was measured:
Type in all cases: cell-based
Gram + = assay: MIC test, average over the 5 gram-positive test germs; conditions: 24 h
Experimental: (§1) As to the antibacterial activity, there was determined the Least (Minimum) Inhibiting Concentration (MIC), by working according to the following operative conditions.
(§2) There were used suspensions of test germs (5 gram-positive and 15 gram-negative) having a known titre, kept freezed at -80°C and diluted, at the time of use, in peptonized water up to a concentration of 1-2.10⁷ cfu/ml.
(§3) A few mg of the products, according to the invention were weighed sufficient for preparing parent solutions in DMSO + NaOH (1N) containing 2560 µg/ml (64µg/ml/dish). From the thus prepared parent solutions there were prepared 12 serial dilutions (1:2) down to the concentration of 1.25 µg/ml.
(§4) 0.5 ml of the different dilutions of each product were distributed on dishes containing 19.5 ml of agarized medium (TSA), maintained in a fluid state at the temperature of 50°C. After slight stirring, the dishes were made to solidify and dry under hood (laminar flow).
(§5) The MIC tests (Least or "Minimum" Inhibiting Concentration) were performed by using a Steers multiwell inoculator having 36 wells, each containing 200 µl of bacterial suspension.
(§6) After inoculation, the dishes were placed into a thermostat and checked after 24 h of incubation at 35°C.
(§7) The MIC is defined as the lowermost product concentration (µg/ml) inhibiting the visible growth of the microorganisms.

[1] = tested on: Acinebacter calcoloaceticus OSMPV 1130; assay: MIC test, agar dilution with Steers multiwell inoculator; conditions: TSA dishes, 24 h at 35°C, read-out: Minimum Inhibiting Concentration
Experimental: as §1, §2, §3, §4, §5, §6, §7

[2] = tested on: Enterobacter cloacae OMNF 1153; assay: as above; conditions: OMNF1153, TSA dishes, 24 h at 35°C, read-out: Minimum Inhibiting Concentration
Experimental: as §1, §2, §3, §4, §5, §6, §7

[3] = tested on: Enterobacter cloacae OMNF 1174; assay: as above; conditions: OMNF1174, TSA dishes, 24 h at 35°C, read-out: Minimum Inhibiting Concentration
Experimental: as §1, §2, §3, §4, §5, §6, §7

Escherichia coli 120 = assay: as above; conditions: TSA dishes, 24 h at 35°C, read-out: Minimum Inhibiting Concentration
Experimental: as §1, §2, §3, §4, §5, §6, §7

[4] = tested on: Escherichia coli ATCC 8739; assay: as above; conditions: ATCC8739, TSA dishes, 24 h at 35°C, read-out: Minimum Inhibiting Concentration
Experimental: as §1, §2, §3, §4, §5, §6, §7

Escherichia coli CNUR 1 = assay: as above; conditions: CNUR1, TSA dishes, 24 h at 35°C, read-out: Minimum Inhibiting Concentration
Experimental: as §1, §2, §3, §4, §5, §6, §7

Escherichia coli CNUR 8 = assay: as above; conditions: CNUR8, TSA dishes, 24 h at 35°C, read-out: Minimum Inhibiting Concentration
Experimental: as §1, §2, §3, §4, §5, §6, §7

Escherichia coli ISF 432 = assay: as above; conditions: ISF432, TSA dishes, 24 h at 35°C, read-out: Minimum Inhibiting Concentration
Experimental: as §1, §2, §3, §4, §5, §6, §7

[5] = tested on: Klebsiella pneumoniae ATCC 10031; assay: as above; conditions: ATCC10031, TSA dishes, 24 h at 35°C, read-out: Minimum Inhibiting Concentration
Experimental: as §1, §2, §3, §4, §5, §6, §7

Proteus vulgaris CNUR 6 = assay: as above; conditions: CNUR6, TSA dishes, 24 h at 35°C, read-out: Minimum Inhibiting Concentration
Experimental: as §1, §2, §3, §4, §5, §6, §7

[6] = tested on: Providencia stuardii CNUR 5; assay: as above; conditions: CNUR5, TSA dishes, 24 h at 35°C, read-out: Minimum Inhibiting Concentration
Experimental: as §1, §2, §3, §4, §5, §6, §7

[7] = tested on: Pseudomonas aeruginosa ATCC 9027; assay: as above; conditions: ATCC9027, TSA dishes, 24 h at 35°C, read-out: Minimum Inhibiting Concentration
Experimental: as §1, §2, §3, §4, §5, §6, §7

[8] = tested on: Pseudomonas aeruginosa CNUR 2; assay: as above; conditions: CNUR2, TSA dishes, 24 h at 35°C, read-out: Minimum Inhibiting Concentration
Experimental: as §1, §2, §3, §4, §5, §6, §7

[9] = tested on: Pseudomonas aeruginosa CNUR 4; assay: as above; conditions: CNUR4, TSA dishes, 24 h at 35°C, read-out: Minimum Inhibiting Concentration
Experimental: as §1, §2, §3, §4, §5, §6, §7

Shighella enteritidis = assay: as above; conditions: TSA dishes, 24 h at 35°C, read-out: Minimum Inhibiting Concentration
Experimental: as §1, §2, §3, §4, §5, §6, §7

[10] = tested on: Staphylococcus aureus ATCC 6538; assay: as above; conditions: ATCC6538, TSA dishes, 24 h at 35°C, read-out: Minimum Inhibiting Concentration
Experimental: as §1, §2, §3, §4, §5, §6, §7

[11] = tested on: Staphylococcus aureus MPR 5; assay: as above; conditions: MPR5, TSA dishes, 24 h at 35°C, read-out: Minimum Inhibiting Concentration
Experimental: as §1, §2, §3, §4, §5, §6, §7

[12] = tested on: Staphylococcus epidermidis CPHL A2; assay: as above; conditions: CPHLA2, TSA dishes, 24 h at 35°C, read-out: Minimum Inhibiting Concentration
Experimental: as §1, §2, §3, §4, §5, §6, §7

[13] = tested on: Staphylococcus epidermidis HCF Berset C.; assay: as above; conditions: TSA dishes, 24 h at 35°C, read-out: Minimum Inhibiting Concentration
Experimental: as §1, §2, §3, §4, §5, §6, §7

[14] = tested on: Streptococcus facealis LEP Br.; assay: as above; conditions: TSA dishes, 24 h at 35°C, read-out: Minimum Inhibiting Concentration
Experimental: as §1, §2, §3, §4, §5, §6, §7

Gram - = assay: MIC test, average over the 15 gram-negative test germs; conditions: 24 h
Experimental: as §1, §2, §3, §4, §5, §6, §7

[15] = geometrical average of the MIC over the 5 Gram + strains, read-out: Geometrical Average
[16] = geometrical average of the MIC over the 15 Gram - strains, read-out: Geometrical Average
[17] = mean log of the MIC over the 15 Gram - strains, read-out: Log (converted)

| SMILES | MIC (Gram +; read-out: Log (converted)) [µg/mL] | MIC [1] [µg/mL] | MIC [2] [µg/mL] | MIC [3] [µg/mL] | MIC (Escherichia coli 120) [µg/mL] | MIC [4] [µg/mL] | MIC (Escherichia coli CNUR 1) [µg/mL] | MIC (Escherichia coli CNUR 8) [µg/mL] | MIC (Escherichia coli ISF 432) [µg/mL] | MIC [5] [µg/mL] | MIC (Proteus vulgaris CNUR 6) [µg/mL] | MIC [6] [µg/mL] | MIC [7] [µg/mL] | MIC [8] [µg/mL] | MIC [9] [µg/mL] | MIC (Shighella enteritidis) [µg/mL] | MIC [10] [µg/mL] | MIC [11] [µg/mL] | MIC [12] [µg/mL] | MIC [13] [µg/mL] | other results |
| --- | --- | --- | --- | --- | --- | --- | --- | --- | --- | --- | --- | --- | --- | --- | --- | --- | --- | --- | --- | --- | --- |
| Cc1c(N2CCSCC2)c(N)cc2c(=O)c(C(=O)O)cn(C3CC3)c12 [Compound 35] | 0.574 (≈ 1.6 µM) | 1 (≈ 2.78 µM) | 0.5 (≈ 1.39 µM) | 1 (≈ 2.78 µM) | 0.25 (≈ 0.696 µM) | 0.06 (≈ 0.167 µM) | 0.5 (≈ 1.39 µM) | 0.25 (≈ 0.696 µM) | 0.06 (≈ 0.167 µM) | 0.03 (≈ 0.0835 µM) | 64 (≈ 178 µM) | 1 (≈ 2.78 µM) | 4 (≈ 11.1 µM) | 8 (≈ 22.3 µM) | 64 (≈ 178 µM) | 0.5 (≈ 1.39 µM) | 0.25 (≈ 0.696 µM) | 0.25 (≈ 0.696 µM) | 0.5 (≈ 1.39 µM) | 1 (≈ 2.78 µM) | MIC (Gram +; [15]): 0.574 µg/mL; MIC [14]: 2 µg/mL (≈ 5.56 µM); MIC (Gram -; [16]): 0.863 µg/mL (≈ 2.4 µM); MIC (Gram -; [17]): 0.863 µg/mL (≈ 2.4 µM) |
| CN1CCN(c2nc3c(cc2N)c(=O)c(C(=O)O)cn3C2CC2)CC1 [Compound 40, chlorhydrate of the 6-amino-1-cyclopropyl-7-(4-methyl-1-piperazinyl)-1,4-dihydro-4-oxo-1,8-naphthyridine carboxylic acid] | 6.07 | 2 | 0.12 | 0.12 | 0.06 | 0.12 | 0.12 | 0.06 | 0.03 | 0.03 | 64 | 2 | 2 | 4 | 64 | 0.12 | 4 | 4 | 4 | 4 | MIC (Gram +; [15]): 6.06 µg/mL; MIC [14]: 32 µg/mL; MIC (Gram -; [16]): 0.466 µg/mL; MIC (Gram -; [17]): 0.466 µg/mL |
| CN1CCN(c2nc3c(c(N)c2N)c(=O)c(C(=O)O)cn3C2CC2)CC1 [Compound 42] | 4 (≈ 11.2 µM) | 4 (≈ 11.2 µM) | 1 (≈ 2.79 µM) | 1 (≈ 2.79 µM) | 0.25 (≈ 0.698 µM) | 0.06 (≈ 0.167 µM) | 1 (≈ 2.79 µM) | 0.25 (≈ 0.698 µM) | 0.06 (≈ 0.167 µM) | 0.06 (≈ 0.167 µM) | 64 (≈ 179 µM) | 4 (≈ 11.2 µM) | 8 (≈ 22.3 µM) | 16 (≈ 44.6 µM) | 128 (≈ 357 µM) | 0.5 (≈ 1.4 µM) | 2 (≈ 5.58 µM) | 2 (≈ 5.58 µM) | 4 (≈ 11.2 µM) | 4 (≈ 11.2 µM) | MIC [14]: 16 µg/mL (≈ 44.6 µM); MIC (Gram -; [16]): 1.37 µg/mL (≈ 3.83 µM); MIC (Gram -; [17]): 1.37 µg/mL (≈ 3.82 µM) |
| CN1CCN(c2cc3c(cc2N)c(=O)c(C(=O)O)cn3C(C)(C)C)CC1 [Compound 44, 6-amino-1-terbutyl-7-(4-methyl-1-piperazinyl)-1,4-dihidro-4-oxo-quinoline carboxylic acid] | 4 (≈ 11.2 µM) | 4 (≈ 11.2 µM) | 2 (≈ 5.58 µM) | 1 (≈ 2.79 µM) | 0.5 (≈ 1.39 µM) | 0.06 (≈ 0.167 µM) | 1 (≈ 2.79 µM) | 0.5 (≈ 1.39 µM) | 0.06 (≈ 0.167 µM) | 0.06 (≈ 0.167 µM) | 128 (≈ 357 µM) | 4 (≈ 11.2 µM) | 4 (≈ 11.2 µM) | 32 (≈ 89.3 µM) | 128 (≈ 357 µM) | 1 (≈ 2.79 µM) | 2 (≈ 5.58 µM) | 2 (≈ 5.58 µM) | 2 (≈ 5.58 µM) | 4 (≈ 11.2 µM) | MIC [14]: 32 µg/mL (≈ 89.3 µM); MIC (Gram -; [16]): 1.73 µg/mL (≈ 4.82 µM); MIC (Gram -; [17]): 1.73 µg/mL (≈ 4.81 µM) |
